Data taken from ChEMBL document CHEMBL3817812, “An expeditious four-component domino protocol for the synthesis of novel thiazolo[3,2-a]thiochromeno[4,3-d]pyrimidine derivatives as antibacterial and antibiofilm agents” (Bioorg Med Chem, 2016).
≈ marks a conversion by molar mass, not a printed value. Calls of active or inactive are those of the source. The rule behind the calls is not given here.

Experiments:
Staphylococcus aureus [1] = experiment: Antibiofilm activity against Staphylococcus aureus MTCC 96 incubated for 24 hrs by crystal violet staining-based assay; assay type: functional, organism-based; settings: MTCC 96, 24 h
Micrococcus luteus [2] = experiment: Antibiofilm activity against Micrococcus luteus MTCC 2470 incubated for 24 hrs by crystal violet staining-based assay; assay type: functional, organism-based; settings: MTCC 2470, 24 h
Staphylococcus aureus [3] = experiment: Antibiofilm activity against Staphylococcus aureus MLS16 MTCC 2940 incubated for 24 hrs by crystal violet staining-based assay; assay type: functional, organism-based; settings: MLS16 MTCC 2940, 24 h
Staphylococcus aureus [4] = experiment: Antibacterial activity against Staphylococcus aureus MTCC 96 incubated for 24 hrs by well diffusion method; assay type: functional; settings: MTCC 96, 24 h
Staphylococcus aureus [5] = experiment: Antibacterial activity against Staphylococcus aureus MLS16 MTCC 2940 incubated for 24 hrs by well diffusion method; assay type: functional; settings: MLS16 MTCC 2940, 24 h
Micrococcus luteus [6] = experiment: Bactericidal activity against Micrococcus luteus MTCC 2470 incubated for 24 hrs by broth dilution method; assay type: functional; settings: MTCC 2470, 24 h
Micrococcus luteus [7] = experiment: Antibacterial activity against Micrococcus luteus MTCC 2470 incubated for 24 hrs by well diffusion method; assay type: functional; settings: MTCC 2470, 24 h
Staphylococcus aureus [8] = experiment: Induction of ROS accumulation in Staphylococcus aureus MTCC 96 biofilm at 4 ug/ml after 24 hrs by DCFH-DA staining-based fluorometric assay; assay type: functional, organism-based
Staphylococcus aureus [9] = experiment: Induction of ROS accumulation in Staphylococcus aureus MTCC 96 biofilm at 2 ug/ml after 24 hrs by DCFH-DA staining-based fluorometric assay; assay type: functional, organism-based
Bacillus subtilis [10] = experiment: Bactericidal activity against Bacillus subtilis MTCC 121 incubated for 24 hrs by broth dilution method; assay type: functional; settings: MTCC 121, 24 h
Bacillus subtilis [11] = experiment: Antibacterial activity against Bacillus subtilis MTCC 121 incubated for 24 hrs by well diffusion method; assay type: functional; settings: MTCC 121, 24 h
Raoultella planticola = experiment: Antibacterial activity against Klebsiella planticola MTCC 530 incubated for 24 hrs by well diffusion method; assay type: functional; settings: MTCC 530, 24 h
Escherichia coli = experiment: Antibacterial activity against Escherichia coli MTCC 739 incubated for 24 hrs by well diffusion method; assay type: functional; settings: MTCC 739, 24 h
Staphylococcus aureus [12] = experiment: Bactericidal activity against Staphylococcus aureus MTCC 96 incubated for 24 hrs by broth dilution method; assay type: functional; settings: MTCC 96, 24 h
Bacillus subtilis [13] = experiment: Antibiofilm activity against Bacillus subtilis MTCC 121 incubated for 24 hrs by crystal violet staining-based assay; assay type: functional, organism-based; settings: MTCC 121, 24 h
Staphylococcus aureus [14] = experiment: Bactericidal activity against Staphylococcus aureus MLS16 MTCC 2940 incubated for 24 hrs by broth dilution method; assay type: functional; settings: MLS16 MTCC 2940, 24 h
Pseudomonas aeruginosa = experiment: Antibacterial activity against Pseudomonas aeruginosa MTCC 2453 incubated for 24 hrs by well diffusion method; assay type: functional; settings: MTCC 2453, 24 h

Structure (SMILES) | IC50 (Staphylococcus aureus [1]) [µg/mL] | MIC (Staphylococcus aureus [4]) [µg/mL] | MIC (Staphylococcus aureus [5]) [µg/mL] | MIC (Micrococcus luteus [7]) [µg/mL] | MIC (Bacillus subtilis [11]) [µg/mL] | MIC (Escherichia coli) [µg/mL] | IC50 (Bacillus subtilis [13]) [µg/mL] | MIC (Pseudomonas aeruginosa) [µg/mL] | IC50 (Micrococcus luteus [2]) [µg/mL] | IC50 (Staphylococcus aureus [3]) [µg/mL] | MBC (Micrococcus luteus [6]) [µg/mL] | Activity (Staphylococcus aureus [8]) | Activity (Staphylococcus aureus [9]) | MBC (Bacillus subtilis [10]) [µg/mL] | MIC (Raoultella planticola) [µg/mL] | MBC (Staphylococcus aureus [12]) [µg/mL] | MBC (Staphylococcus aureus [14]) [µg/mL]
O=[N+]([O-])c1cccc(C2C3=C(N=C4SC=C(c5ccc(Cl)cc5)N42)c2ccccc2SC3)c1 (configuration not stated) | – | > 125 | > 125 | > 125 | > 125 | > 125 | – | > 125 | – | – | – | – | – | – | > 125 | – | –
O=c1oc2ccccc2cc1C1=CSC2=NC3=C(CSc4ccccc43)C(c3cccc([N+](=O)[O-])c3)N12 (configuration not stated) | – | > 125 | > 125 | > 125 | > 125 | > 125 | – | > 125 | – | – | – | – | – | – | > 125 | – | –
Clc1ccc(C2=CSC3=NC4=C(CSc5ccccc54)C(c4ccccc4)N23)cc1 (configuration not stated) | – | > 125 | > 125 | > 125 | > 125 | > 125 | – | > 125 | – | – | – | – | – | – | > 125 | – | –
O=c1oc2ccccc2cc1C1=CSC2=NC3=C(CSc4ccccc43)C(c3ccc(Cl)cc3)N12 (configuration not stated) | – | > 125 | > 125 | > 125 | > 125 | > 125 | – | > 125 | – | – | – | – | – | – | > 125 | – | –
Cc1ccc(C2C3=C(N=C4SC=C(c5ccc(Br)cc5)N42)c2ccccc2SC3)cc1 (configuration not stated) | – | > 125 | > 125 | > 125 | > 125 | > 125 | – | > 125 | – | – | – | – | – | – | > 125 | – | –
O=[N+]([O-])c1ccc(C2=CSC3=NC4=C(CSc5ccccc54)C(c4ccc(Cl)cc4)N23)cc1 (configuration not stated) | – | > 125 | > 125 | 15.6 (≈ 31.8 µM) | 15.6 (≈ 31.8 µM) | > 125 | – | > 125 | – | – | 31.2 (≈ 63.7 µM) | – | – | 31.2 (≈ 63.7 µM) | > 125 | > 125 | > 125
Brc1ccc(C2=CSC3=NC4=C(CSc5ccccc54)C(c4ccccc4)N23)cc1 (configuration not stated) | – | > 125 | > 125 | > 125 | > 125 | > 125 | – | > 125 | – | – | – | – | – | – | > 125 | – | –
O=C(O)c1cn(C2CC2)c2cc(N3CCNCC3)c(F)cc2c1=O [CIPROFLOXACIN] | – | 0.9 (≈ 2.72 µM) | 0.9 (≈ 2.72 µM) | 0.9 (≈ 2.72 µM) | 0.9 (≈ 2.72 µM) | 0.9 (≈ 2.72 µM) | – | 0.9 (≈ 2.72 µM) | 0.4 (≈ 1.21 µM) | 0.4 (≈ 1.21 µM) | 1.9 (≈ 5.73 µM) | Active | Active | 0.9 (≈ 2.72 µM) | 0.9 (≈ 2.72 µM) | 1.9 (≈ 5.73 µM) | 0.9 (≈ 2.72 µM)

Continued, in another order:

IC50 (Staphylococcus aureus [1]) [µg/mL] | MIC (Staphylococcus aureus [4]) [µg/mL] | MIC (Staphylococcus aureus [5]) [µg/mL] | MIC (Micrococcus luteus [7]) [µg/mL] | MIC (Bacillus subtilis [11]) [µg/mL] | MIC (Escherichia coli) [µg/mL] | IC50 (Bacillus subtilis [13]) [µg/mL] | MIC (Pseudomonas aeruginosa) [µg/mL] | Structure (SMILES) | IC50 (Micrococcus luteus [2]) [µg/mL] | IC50 (Staphylococcus aureus [3]) [µg/mL] | MBC (Micrococcus luteus [6]) [µg/mL] | Activity (Staphylococcus aureus [8]) | Activity (Staphylococcus aureus [9]) | MBC (Bacillus subtilis [10]) [µg/mL] | MIC (Raoultella planticola) [µg/mL] | MBC (Staphylococcus aureus [12]) [µg/mL] | MBC (Staphylococcus aureus [14]) [µg/mL]
2.1 (≈ 4.95 µM) | 3.9 (≈ 9.19 µM) | 3.9 (≈ 9.19 µM) | 7.8 (≈ 18.4 µM) | 3.9 (≈ 9.19 µM) | > 125 | 1.9 (≈ 4.47 µM) | > 125 | Cc1ccc(C2=CSC3=NC4=C(CSc5ccccc54)C(c4ccccc4)N23)cc1 (configuration not stated) | 5.3 (≈ 12.5 µM) | 2.4 (≈ 5.65 µM) | 15.6 (≈ 36.7 µM) | Active | Active | 3.9 (≈ 9.19 µM) | > 125 | 7.8 (≈ 18.4 µM) | 7.8 (≈ 18.4 µM)
– | 31.2 (≈ 76 µM) | > 125 | > 125 | > 125 | > 125 | – | > 125 | C1=C(c2ccccc2)N2C(=NC3=C(CSc4ccccc43)C2c2ccccc2)S1 (configuration not stated) | – | – | > 125 | – | – | > 125 | > 125 | 62.5 (≈ 152 µM) | > 125
– | > 125 | 15.6 (≈ 35.1 µM) | > 125 | > 125 | > 125 | – | > 125 | Clc1ccc(C2C3=C(N=C4SC=C(c5ccccc5)N42)c2ccccc2SC3)cc1 (configuration not stated) | – | – | – | – | – | – | > 125 | – | –
– | 31.2 (≈ 63.3 µM) | 31.2 (≈ 63.3 µM) | > 125 | > 125 | > 125 | – | > 125 | Cc1ccc(C2C3=C(N=C4SC=C(c5cc6ccccc6oc5=O)N42)c2ccccc2SC3)cc1 (configuration not stated) | – | – | > 125 | – | – | > 125 | > 125 | 62.5 (≈ 127 µM) | 31.2 (≈ 63.3 µM)
– | 15.6 (≈ 32.6 µM) | 31.2 (≈ 65.2 µM) | 31.2 (≈ 65.2 µM) | 31.2 (≈ 65.2 µM) | > 125 | – | > 125 | O=c1oc2ccccc2cc1C1=CSC2=NC3=C(CSc4ccccc43)C(c3ccccc3)N12 (configuration not stated) | – | – | 31.2 (≈ 65.2 µM) | – | – | 62.5 (≈ 131 µM) | > 125 | 31.2 (≈ 65.2 µM) | 62.5 (≈ 131 µM)
– | 31.2 (≈ 59.6 µM) | > 125 | > 125 | 31.2 (≈ 59.6 µM) | > 125 | – | > 125 | Clc1ccc(C2C3=C(N=C4SC=C(c5ccc(Br)cc5)N42)c2ccccc2SC3)cc1 (configuration not stated) | – | – | > 125 | – | – | 31.2 (≈ 59.6 µM) | > 125 | 62.5 (≈ 119 µM) | > 125
– | 7.8 (≈ 16.4 µM) | 15.6 (≈ 32.8 µM) | > 125 | 62.5 (≈ 132 µM) | > 125 | – | > 125 | COc1ccc(C2=CSC3=NC4=C(CSc5ccccc54)C(c4ccc(Cl)cc4)N23)cc1 (configuration not stated) | – | – | > 125 | – | – | 62.5 (≈ 132 µM) | > 125 | 15.6 (≈ 32.8 µM) | 31.2 (≈ 65.7 µM)
